Assay results taken from US11434220B2, “Use of physiological cooling active ingredients, and compositions comprising such active ingredients” (BASF SE, priority 2017, dated 2022).

Assays:
human TRPM8 receptor = molecular target: T1, human TRPM8 receptor (Homo sapiens, UniProt Q7Z2W7); experiment: Assay for TRPM8 modulators: Ca2+ fluorescence (Fluo-4) in HEK293-TRPM8 test cells; format: cell-based; conditions: HEK293 cells stably transfected with human TRPM8, agonism, triplicates, 0.1-200 μM; read-out: Activity In vitro assay (EC50)
T1 construct: expressed in transfected cells
Text: The test cell system produced, with human TRPM8 DNA, was a stably transfected HEK293 cell line. Preference is given here to HEK293 which, via the plasmid introduced, offers the option of induction of TRPM8 expression by means of tetracycline.
The agonism or antagonism of the receptor can be quantified by means of a Ca^2+-sensitive dye (e.g. FURA, Fluo-4 etc.). Agonists on their own result in an increase in the Ca^2+ signal; antagonists in the presence of menthol, for example, result in a reduction in the Ca^2+ signal (in each case detected by means of the Fluo-4 dye which is caused to have different fluorescence properties by Ca^2+).
First of all, in a manner known per se, a fresh culture of transformed HEK cells is produced in cell culture bottles. The HEK293-TRPM8 test cells are detached from the cell culture bottles by means of trypsin and 40 000 cells/well are sown with 100 μl of medium in 96-hole plates (Greiner #655948 poly-D-lysine-coated). For induction of the TRPM8 receptor, tetracycline is added to the growth medium (DMEM/HG, 10% FCS tetracycline-free, 4 mM L-glutamine, 15 μg/mL blasticidin, 100 μg/mL hygromycin B, 1 μg/mL tetracycline). The next day, the cells are laden with Fluo-4AM dye and the test is conducted.
The test substances are used in the assay in triplicates in concentrations of 0.1-200 μM. Normally, the compounds are kept in DMSO solutions and diluted down for the assay to a maximum DMSO concentration of 2%.

[1] = test system: oral cavity of trained panelists; experiment: Time-intensity profile of cooling after 40 s mouth rinse with sample solution; format: in vivo, human; conditions: for Cooling intensity: 40 s mouth rinse; for Onset of cooling activity: time-intensity profile, with respect to WS3
Procedure: To establish a time-intensity profile, the oral cavity of trained panelists (n=8 to 11) was rinsed for 40 seconds with a mouthful of a sample solution (2 ppm of FEMA 4809 or 50 ppm of FEMA 4496 or 50 ppm of 1) to 5)). Subsequently, the cooling intensity perceived was assessed at defined time intervals using a scale.

trained panelists = experiment: Sensory assessment: cooling intensity of inventive amides in 5% sugar solution compared to FEMA 4809; format: in vivo, human; conditions: scale 1 (very weak) to 9 (very strong), n=10 to 11
Procedure: […] What were assessed here were initial cooling intensity, overall cooling intensity and long-lasting action on a scale from 1 (very weak) to 9 (very strong).

[2] = time 0 sec; 2 ppm FEMA 4809, 50 ppm FEMA 4496, 50 ppm 1) to 5)
[3] = time 40 sec; 2 ppm FEMA 4809, 50 ppm FEMA 4496, 50 ppm 1) to 5)
[4] = time 70 sec; 2 ppm FEMA 4809, 50 ppm FEMA 4496, 50 ppm 1) to 5)
[5] = time 100 sec; 2 ppm FEMA 4809, 50 ppm FEMA 4496, 50 ppm 1) to 5)
[6] = time 130 sec; 2 ppm FEMA 4809, 50 ppm FEMA 4496, 50 ppm 1) to 5)
[7] = time 160 sec; 2 ppm FEMA 4809, 50 ppm FEMA 4496, 50 ppm 1) to 5)
[8] = time 190 sec; 2 ppm FEMA 4809, 50 ppm FEMA 4496, 50 ppm 1) to 5)
[9] = time 220 sec; 2 ppm FEMA 4809, 50 ppm FEMA 4496, 50 ppm 1) to 5)
[10] = time 250 sec; 2 ppm FEMA 4809, 50 ppm FEMA 4496, 50 ppm 1) to 5)
[11] = time 280 sec; 2 ppm FEMA 4809, 50 ppm FEMA 4496, 50 ppm 1) to 5)
[12] = time 310 sec; 2 ppm FEMA 4809, 50 ppm FEMA 4496, 50 ppm 1) to 5)
[13] = time 340 sec; 2 ppm FEMA 4809, 50 ppm FEMA 4496, 50 ppm 1) to 5)
[14] = time 640 sec; 2 ppm FEMA 4809, 50 ppm FEMA 4496, 50 ppm 1) to 5)
[15] = time 940 sec; 2 ppm FEMA 4809, 50 ppm FEMA 4496, 50 ppm 1) to 5)
[16] = time 1240 sec; 2 ppm FEMA 4809, 50 ppm FEMA 4496, 50 ppm 1) to 5)

T1 sequence (Q7Z2W7 whole entry): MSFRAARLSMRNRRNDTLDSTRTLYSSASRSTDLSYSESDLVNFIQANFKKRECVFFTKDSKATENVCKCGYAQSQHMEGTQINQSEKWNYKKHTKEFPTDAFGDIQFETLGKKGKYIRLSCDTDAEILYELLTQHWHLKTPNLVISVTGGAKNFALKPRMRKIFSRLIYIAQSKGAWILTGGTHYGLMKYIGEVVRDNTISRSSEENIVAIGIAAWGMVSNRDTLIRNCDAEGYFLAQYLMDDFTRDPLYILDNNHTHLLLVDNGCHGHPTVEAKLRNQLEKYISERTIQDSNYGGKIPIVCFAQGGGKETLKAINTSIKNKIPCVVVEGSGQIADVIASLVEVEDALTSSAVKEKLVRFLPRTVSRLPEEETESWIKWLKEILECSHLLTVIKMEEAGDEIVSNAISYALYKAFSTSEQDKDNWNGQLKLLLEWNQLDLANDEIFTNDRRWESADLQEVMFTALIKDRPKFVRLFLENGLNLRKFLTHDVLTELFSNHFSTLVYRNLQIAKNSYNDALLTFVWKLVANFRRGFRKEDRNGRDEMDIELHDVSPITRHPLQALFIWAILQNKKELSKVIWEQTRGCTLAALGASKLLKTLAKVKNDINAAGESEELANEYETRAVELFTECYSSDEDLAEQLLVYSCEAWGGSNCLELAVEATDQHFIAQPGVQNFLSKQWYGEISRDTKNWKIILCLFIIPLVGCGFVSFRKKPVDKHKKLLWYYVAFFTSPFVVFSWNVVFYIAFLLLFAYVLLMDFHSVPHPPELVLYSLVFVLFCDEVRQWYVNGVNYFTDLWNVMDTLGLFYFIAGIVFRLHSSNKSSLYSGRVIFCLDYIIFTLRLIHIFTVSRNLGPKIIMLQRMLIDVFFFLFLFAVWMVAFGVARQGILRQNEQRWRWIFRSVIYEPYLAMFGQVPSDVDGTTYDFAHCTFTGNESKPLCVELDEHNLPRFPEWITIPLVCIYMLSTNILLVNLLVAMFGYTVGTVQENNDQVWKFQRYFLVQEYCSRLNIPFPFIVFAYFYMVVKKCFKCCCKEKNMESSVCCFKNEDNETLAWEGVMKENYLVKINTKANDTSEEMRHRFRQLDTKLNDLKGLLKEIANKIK

## COc1ccc(OCC(=O)N(c2cc[nH]n2)C2CCSC2)cc1 (stereo not shown) [2-(4-methoxyphenoxy)-N-(1H-pyrazol-3-yl)-N-tetrahydrothiophen-3-yl-acetamide]
Human TRPM8 receptor
  EC50: 10 µM

## COc1ccc(OCC(=O)N(CCSC)c2ccccc2)cc1 [2-(4-methoxyphenoxy)-N-(2-methylsulfanylethyl)-N-phenyl-acetamide]
Human TRPM8 receptor
  EC50: 30 µM

## Cc1ccc(OCC(=O)N(CC2CCCO2)c2cc[nH]n2)cc1 (stereo not shown) [2-(4-methylphenoxy)-N-(1H-pyrazol-3-yl)-N-(tetrahydrofuran-2-ylmethyl)acetamide]
Human TRPM8 receptor
  EC50: 10 µM

## Cc1ccc(OCC(=O)N(c2ccccc2)C2CCOC2)cc1 (stereo not shown) [2-(4-methylphenoxy)-N-phenyl-N-tetrahydrofuran-3-yl-acetamide]
Human TRPM8 receptor
  EC50: 25 µM

## Cc1ccc(OCC(=O)N(c2ccccc2)C2CCSC2)cc1 (stereo not shown) [2-(4-methylphenoxy)-N-phenyl-N-tetrahydrothiophen-3-yl-acetamide]
Human TRPM8 receptor
  EC50: 12.5 µM

## Cc1ccc(/C=C/C(=O)N(c2ccccn2)C2CCSC2)cc1 (stereo not shown) [3), (E)-3-(p-tolyl)-N-(2-pyridyl)-N-tetrahydrothiophen-3-ylprop-2-enamide]
[1]; [2]
  Cooling intensity: 0.0
[1]; [3]
  Cooling intensity: 4.0
[1]; [4]
  Cooling intensity: 4.0
[1]; [5]
  Cooling intensity: 4.0
[1]; [6]
  Cooling intensity: 3.9
[1]; [7]
  Cooling intensity: 3.7
[1]; [8]
  Cooling intensity: 3.7
[1]; [9]
  Cooling intensity: 3.5
[1]; [10]
  Cooling intensity: 3.4
[1]; [11]
  Cooling intensity: 3.3
[1]; [12]
  Cooling intensity: 3.2
[1]; [13]
  Cooling intensity: 3.2
[1]; [14]
  Cooling intensity: 2.2
[1]; [15]
  Cooling intensity: 1.3
[1]; [16]
  Cooling intensity: 0.7

## CSCCN(C(=O)/C=C/c1ccc2c(c1)OCO2)c1ccccn1 [5), (E)-3-(1,3-benzodioxol-5-yl)-N-(2-methylsulfanylethyl)-N-(2-pyridyl)prop-2-enamide]
[1]; [2]
  Cooling intensity: 0.0
[1]; [3]
  Cooling intensity: 5.7
[1]; [4]
  Cooling intensity: 6.2
[1]; [5]
  Cooling intensity: 6.0
[1]; [6]
  Cooling intensity: 5.6
[1]; [7]
  Cooling intensity: 5.6
[1]; [8]
  Cooling intensity: 5.2
[1]; [9]
  Cooling intensity: 5.0
[1]; [10]
  Cooling intensity: 4.9
[1]; [11]
  Cooling intensity: 4.6
[1]; [12]
  Cooling intensity: 4.5
[1]; [13]
  Cooling intensity: 4.3
[1]; [14]
  Cooling intensity: 3.1
[1]; [15]
  Cooling intensity: 1.9
[1]; [16]
  Cooling intensity: 1.1

## O=C(/C=C/c1ccc2c(c1)OCO2)N(CC1CCCO1)c1cc[nH]n1 (stereo not shown) [(E)-3-(1,3-benzodioxol-5-yl)-N-(1H-pyrazol-3-yl)-N-(tetrahydrofuran-2-ylmethyl)prop-2-enamide]
Human TRPM8 receptor
  EC50: 15 µM

## O=C(/C=C/c1ccc2c(c1)OCO2)N(CC1CCCS1)c1cc[nH]n1 (stereo not shown) [(E)-3-(1,3-benzodioxol-5-yl)-N-(1H-pyrazol-3-yl)-N-(tetrahydrothiophen-2-ylmethyl)prop-2-enamide]
Human TRPM8 receptor
  EC50: 5 µM

## CSCCN(C(=O)/C=C/c1ccc2c(c1)OCO2)c1cc[nH]n1 [(E)-3-(1,3-benzodioxol-5-yl)-N-(2-methylsulfanylethyl)-N-(1H-pyrazol-3-yl)prop-2-enamide]
Trained panelists; 5 ppm in 5% sugar solution
  Initial cooling effect: 3.1
  Long-lasting action: 4.6
  Overall cooling intensity: 4.8
Trained panelists; 20 ppm in 5% sugar solution
  Initial cooling effect: 3.7
  Long-lasting action: 6.6
  Overall cooling intensity: 6.6

## CSCCN(C(=O)/C=C/c1ccc2c(c1)OCO2)c1ccccn1 [(E)-3-(1,3-benzodioxol-5-yl)-N-(2-methylsulfanylethyl)-N-(2-pyridyl)prop-2-enamide]
Trained panelists; 2 ppm in 5% sugar solution
  Initial cooling effect: 3.4
  Long-lasting action: 4.3
  Overall cooling intensity: 4.6
Trained panelists; 20 ppm in 5% sugar solution
  Initial cooling effect: 6.2
  Long-lasting action: 7.5
  Overall cooling intensity: 7.8

## CSCCN(C(=O)/C=C/c1ccc2c(c1)OCO2)c1ccccc1 [(E)-3-(1,3-benzodioxol-5-yl)-N-(2-methylsulfanylethyl)-N-phenyl-prop-2-enamide]
Trained panelists; 20 ppm in 5% sugar solution
  Initial cooling effect: 2.7
  Long-lasting action: 4.7
  Overall cooling intensity: 4.7

## CCN(CCCSC)C(=O)/C=C/c1ccc2c(c1)OCO2 [(E)-3-(1,3-benzodioxol-5-yl)-N-ethyl-N-(3-methylsulfanylpropyl)prop-2-enamide]
Human TRPM8 receptor
  EC50: 30 µM

## COc1ccc(/C=C/C(=O)N(CC2CCCO2)c2cc[nH]n2)cc1 (stereo not shown) [(E)-3-(4-methoxyphenyl)-N-(1H-pyrazol-3-yl)-N-(tetrahydrofuran-2-ylmethyl)prop-2-enamide]
Human TRPM8 receptor
  EC50: 25 µM

## COc1ccc(/C=C/C(=O)N(CCSC)c2ccccc2)cc1 [(E)-3-(4-methoxyphenyl)-N-(2-methylsulfanylethyl)-N-phenyl-prop-2-enamide]
Human TRPM8 receptor
  EC50: 25 µM

## COc1ccc(/C=C/C(=O)N(CC2CCCO2)c2ccccc2)cc1 (stereo not shown) [(E)-3-(4-methoxyphenyl)-N-phenyl-N-(tetrahydrofuran-2-ylmethyl)prop-2-enamide]
Human TRPM8 receptor
  EC50: 25 µM

## CSCCN(C(=O)/C=C/c1ccc(C)cc1)c1ccccn1 [(E)-N-(2-methylsulfanylethyl)-3-(p-tolyl)-N-(2-pyridyl)prop-2-enamide]
Trained panelists; 20 ppm in 5% sugar solution
  Initial cooling effect: 4
  Long-lasting action: 5.3
  Overall cooling intensity: 5.7

## Cc1ccc(/C=C/C(=O)N(c2ccccc2)C2CCOC2)cc1 (stereo not shown) [(E)-N-phenyl-3-(p-tolyl)-N-tetrahydrofuran-3-ylprop-2-enamide]
Trained panelists; 20 ppm in 5% sugar solution
  Initial cooling effect: 4.3
  Long-lasting action: 6.1
  Overall cooling intensity: 5.7

## CC1CCC(C(C)C)C(C(=O)Nc2ccc(CC#N)cc2)C1 (stereo not shown) [FEMA 4496]
[1]; [2]
  Cooling intensity: 0
[1]; [3]
  Cooling intensity: 1.9
[1]; [4]
  Cooling intensity: 2.3
[1]; [5]
  Cooling intensity: 2.4
[1]; [6]
  Cooling intensity: 2.3
[1]; [7]
  Cooling intensity: 2.3
[1]; [8]
  Cooling intensity: 2.3
[1]; [9]
  Cooling intensity: 2.2
[1]; [10]
  Cooling intensity: 2.2
[1]; [11]
  Cooling intensity: 2.2
[1]; [12]
  Cooling intensity: 2.1
[1]; [13]
  Cooling intensity: 2.1
[1]; [14]
  Cooling intensity: 2.0
[1]; [15]
  Cooling intensity: 1.5
[1]; [16]
  Cooling intensity: 1.2
[1]
  Onset of cooling activity: distinctly retarded onset of the cooling action

## Cc1ccc(OCC(=O)N(Cc2cccs2)c2ccn[nH]2)cc1 [FEMA 4809]
[1]; [2]
  Cooling intensity: 0
[1]; [3]
  Cooling intensity: 2.7
[1]; [4]
  Cooling intensity: 2.8
[1]; [5]
  Cooling intensity: 2.5
[1]; [6]
  Cooling intensity: 2.6
[1]; [7]
  Cooling intensity: 2.6
[1]; [8]
  Cooling intensity: 2.7
[1]; [9]
  Cooling intensity: 2.8
[1]; [10]
  Cooling intensity: 2.7
[1]; [11]
  Cooling intensity: 2.8
[1]; [12]
  Cooling intensity: 2.9
[1]; [13]
  Cooling intensity: 2.8
[1]; [14]
  Cooling intensity: 2.6
[1]; [15]
  Cooling intensity: 2.6
[1]; [16]
  Cooling intensity: 2.1
[1]
  Onset of cooling activity: distinctly retarded onset of the cooling action
Trained panelists; 2 ppm in 5% sugar solution
  Initial cooling effect: 3.9
  Long-lasting action: 7.5
  Overall cooling intensity: 7.3

## CCNC(=O)C1CC(C)CCC1C(C)C (stereo not shown) [WS3, N-ethylmenthane-3-carboxamide]
[1]; [2]
  Cooling intensity: 0
[1]; [3]
  Cooling intensity: 4.3
[1]; [4]
  Cooling intensity: 4.3
[1]; [5]
  Cooling intensity: 4.1
[1]; [6]
  Cooling intensity: 3.7
[1]; [7]
  Cooling intensity: 3.4
[1]; [8]
  Cooling intensity: 3.1
[1]; [9]
  Cooling intensity: 2.9
[1]; [10]
  Cooling intensity: 2.8
[1]; [11]
  Cooling intensity: 2.4
[1]; [12]
  Cooling intensity: 2.3
[1]; [13]
  Cooling intensity: 2.1
[1]; [14]
  Cooling intensity: 1.2
[1]; [15]
  Cooling intensity: 0.5
[1]; [16]
  Cooling intensity: 0.3
